According to ChEMBL document CHEMBL6096686, “Lanosterol 14α-Demethylase (CYP51)/Heat Shock Protein 90 (Hsp90) Dual Inhibitors for the Treatment of Invasive Candidiasis” (J Med Chem, 2025):
In brackets after ≈: the same amount, converted by molar mass. Activity calls are given as the source filed them. No cut-off for these calls is given here.

Tests used:
Candida albicans [1] = test: Antifungal activity against Candida albicans SC5314 incubated for 48 hrs by CLSI based liquid microdilution technique; type: functional
Nakaseomyces glabratus [2] = test: Antifungal activity against Candida glabrata 7804 incubated for 48 hrs by CLSI based liquid microdilution technique; type: functional
Cryptococcus neoformans [3] = test: Antifungal activity against Cryptococcus neoformans H99 incubated for 72 hrs by CLSI based liquid microdilution technique; type: functional
Pichia kudriavzevii [4] = test: Antifungal activity against Candida krusei 10153 incubated for 48 hrs by CLSI based liquid microdilution technique; type: functional
Candida albicans [5] = test: Synergistic antifungal activity against Candida albicans SC5314 incubated for 48 hrs in presence of FLC by CLSI based liquid microdilution technique; type: functional
Cryptococcus neoformans [6] = test: Synergistic antifungal against Cryptococcus neoformans H99 incubated for 72 hrs in presence of FLC by CLSI based liquid microdilution technique; type: functional
Nakaseomyces glabratus [7] = test: Synergistic antifungal activity against Candida glabrata 7804 incubated for 48 hrs in presence of FLC by CLSI based liquid microdilution technique; type: functional
Pichia kudriavzevii [8] = test: Synergistic antifungal activity against Candida krusei 10153 incubated for 48 hrs in presence of FLC by CLSI based liquid microdilution technique; type: functional
[9] = Cytotoxicity against HUVEC cells measured after 72 hrs by CCK8 assay; type: toxicity, cell-based; conditions: human
[10] = Cytotoxicity against human L02 cells measured after 72 hrs by CCK8 assay; type: toxicity, cell-based
[11] = molecular target: T1, Lanosterol 14-alpha demethylase (Candida albicans (strain SC5314 / ATCC MYA-2876) (Yeast), UniProt P10613); test: Inhibition of CYP51 in Candida albicans SC5314 assessed as decrease in ergosterol level at 4 ug/ml measured after 48 hrs by GC-MS analysis; conditions: at 4 µg/mL
T1 sequence (P10613 whole entry): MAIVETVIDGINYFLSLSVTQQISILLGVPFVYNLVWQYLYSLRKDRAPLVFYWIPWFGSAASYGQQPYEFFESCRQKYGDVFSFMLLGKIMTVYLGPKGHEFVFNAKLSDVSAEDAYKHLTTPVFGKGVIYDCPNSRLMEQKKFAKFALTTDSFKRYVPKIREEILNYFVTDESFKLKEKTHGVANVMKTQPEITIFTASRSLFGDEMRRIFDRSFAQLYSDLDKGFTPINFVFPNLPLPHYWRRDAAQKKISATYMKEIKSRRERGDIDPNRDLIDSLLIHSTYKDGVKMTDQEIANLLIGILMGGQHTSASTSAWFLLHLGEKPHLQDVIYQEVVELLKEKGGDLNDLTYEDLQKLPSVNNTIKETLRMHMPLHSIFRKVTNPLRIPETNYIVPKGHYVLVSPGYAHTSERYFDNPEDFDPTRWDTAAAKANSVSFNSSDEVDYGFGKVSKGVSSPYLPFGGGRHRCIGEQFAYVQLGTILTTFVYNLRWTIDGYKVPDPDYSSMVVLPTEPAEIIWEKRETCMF

[12] = molecular target: Heat shock protein 90 homolog (Candida albicans (strain SC5314 / ATCC MYA-2876) (Yeast), UniProt P46598); test: Inhibition of HSP90 extracted from Candida albicans SC5314 lysate using FITC-Geldanamycin as substrate incubated for 6 hrs by fluorescence polarization assay; type: subcellular
Sequence of Heat shock protein 90 homolog (P46598 whole entry): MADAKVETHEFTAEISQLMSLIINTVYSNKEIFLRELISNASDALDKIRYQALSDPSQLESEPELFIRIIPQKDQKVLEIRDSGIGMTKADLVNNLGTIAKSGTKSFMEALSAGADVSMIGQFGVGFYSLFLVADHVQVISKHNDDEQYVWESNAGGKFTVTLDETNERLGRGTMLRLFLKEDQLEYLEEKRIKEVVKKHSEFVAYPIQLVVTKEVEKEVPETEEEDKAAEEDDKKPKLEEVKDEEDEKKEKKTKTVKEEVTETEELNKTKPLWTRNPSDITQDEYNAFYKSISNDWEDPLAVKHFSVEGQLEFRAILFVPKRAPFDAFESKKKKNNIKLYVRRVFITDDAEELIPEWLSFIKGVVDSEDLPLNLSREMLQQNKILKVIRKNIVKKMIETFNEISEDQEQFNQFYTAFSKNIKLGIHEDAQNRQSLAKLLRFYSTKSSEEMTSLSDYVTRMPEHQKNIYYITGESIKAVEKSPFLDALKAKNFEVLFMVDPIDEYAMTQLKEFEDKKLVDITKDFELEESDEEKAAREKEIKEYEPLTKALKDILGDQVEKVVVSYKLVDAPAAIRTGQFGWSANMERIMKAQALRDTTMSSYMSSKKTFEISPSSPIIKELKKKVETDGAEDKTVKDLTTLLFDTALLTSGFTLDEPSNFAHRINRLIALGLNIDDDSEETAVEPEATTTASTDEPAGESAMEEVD

Heat shock protein HSP90 = Heat shock protein HSP90 (Homo sapiens, UniProt P07900+P08238); test: Inhibition of human HSP90 using FITC-Geldanamycin as substrate incubated for 6 hrs by fluorescence polarization assay; type: protein assay
Candida albicans [13] = test: Inhibition of biofilm formation in Candida albicans SC5314 at 4 ug/ml incubated for 24 hrs by XTT reduction method relative to control; type: functional
Candida albicans [14] = test: Antifungal activity against Candida albicans SC5314 infected in immunosuppressed ICR mouse assessed as reduction in fungal burden in kidney at 10 mg/kg, ip treated for 5 days consecutively; type: functional, organism-based; conditions: time 5.0 day
Candida albicans [15] = test: Synergistic antifungal activity against Candida albicans SC5314 infected in immunosuppressed ICR mouse assessed as reduction in fungal burden in kidney at 10 mg/kg, ip treated for 5 days consecutively in presence of FLC; type: functional, organism-based; conditions: time 5.0 day
[16] = molecular target: T1, Lanosterol 14-alpha demethylase; test: Inhibition of CYP51 in Candida albicans SC5314 assessed as accumulation of eburicol at 4 ug/ml measured after 48 hrs by GC-MS analysis; conditions: at 4 µg/mL
[17] = molecular target: T1, Lanosterol 14-alpha demethylase; test: Inhibition of CYP51 in Candida albicans SC5314 assessed as decrease in ERG26 mRNA level at 4 ug/ml measured after 24 hrs by real time RT-PCR analysis; conditions: at 4 µg/mL
[18] = molecular target: T1, Lanosterol 14-alpha demethylase; test: Inhibition of CYP51 in Candida albicans SC5314 assessed as decrease in ERG27 mRNA level at 4 ug/ml measured after 24 hrs by real time RT-PCR analysis; conditions: at 4 µg/mL
[19] = molecular target: T1, Lanosterol 14-alpha demethylase; test: Inhibition of CYP51 in Candida albicans SC5314 assessed as decrease in ERG6 mRNA level at 4 ug/ml measured after 24 hrs by real time RT-PCR analysis; conditions: at 4 µg/mL
[20] = molecular target: T1, Lanosterol 14-alpha demethylase; test: Inhibition of CYP51 in Candida albicans SC5314 assessed as decrease in ERG3 mRNA level at 4 ug/ml measured after 24 hrs by real time RT-PCR analysis; conditions: at 4 µg/mL
Candida albicans [21] = test: Selectivity index, ratio of MIC80 antifungal activity against Candida albicans SC5314 to MIC80 for antifungal activity against Candida albicans SC5314 harboring HSP90 monoallelic knockout; type: functional
Candida albicans [22] = test: Antifungal activity against Candida albicans SC5314 harboring HSP90 monoallelic knockout incubated for 48 hrs by CLSI based liquid microdilution technique; type: functional
Candida albicans [23] = test: Antifungal activity against Candida albicans SC5314 assessed as fungal growth inhibition at 4 ug/ml incubated for 48 hrs; type: functional, organism-based; conditions: dose 4.0 µg/ml
Candida albicans [24] = test: Antifungal activity against Candida albicans SC5314 assessed as reduction in fungal growth at 8 ug/ml incubated for 48 hrs (reference value: 8.17 log10CFU/ml); type: functional; conditions: dose 8 µg/ml
Candida albicans [25] = test: Antifungal activity against Candida albicans SC5314 assessed as fungal growth inhibition incubated for 48 hrs by spot-plating method; type: functional, organism-based; conditions: dose 4-32 µg/ml
Candida albicans [26] = test: Antifungal activity against Candida albicans SC5314 assessed as fungal growth inhibition at 4 ug/ml incubated for 48 hrs by spot-plating method; type: functional, organism-based; conditions: dose 4.0 µg/ml
Candida albicans [27] = test: Antifungal activity against Candida albicans SC5314 assessed as fungal growth inhibition at 32 ug/ml incubated for 48 hrs by spot-plating method relative to control; type: functional
Candida albicans [28] = test: Inhibition of yeast to hypha transition in Candida albicans SC5314 at 4 ug/ml incubated for 2.5 hrs by inverted microscopy; type: functional, organism-based; conditions: dose 4.0 µg/ml
Candida albicans [29] = test: Inhibition of yeast to hypha transition in Candida albicans SC5314 at 8 ug/ml incubated for 2.5 hrs by inverted microscopy relative to control; type: functional
Candida albicans [30] = test: Inhibition of biofilm formation in Candida albicans SC5314 at 0.5 ug/ml incubated for 24 hrs by XTT reduction method relative to control; type: functional
Candida albicans [31] = test: Inhibition of biofilm formation in Candida albicans SC5314 at 32 ug/ml incubated for 24 hrs by XTT reduction method relative to control; type: functional
Candida albicans [32] = test: Inhibition of biofilm formation in Candida albicans SC5314 incubated for 24 hrs by XTT reduction method; type: functional, organism-based; conditions: dose <= 32.0 µg/ml
Candida albicans [33] = test: Antifungal activity against Candida albicans SC5314 assessed as decrease in BCR1 mRNA level at 4 ug/ml measured after 24 hrs by real time RT-PCR analysis; type: functional, organism-based; conditions: dose 4.0 µg/ml
Candida albicans [34] = test: Antifungal activity against Candida albicans SC5314 assessed as decrease in EAP1 mRNA level at 4 ug/ml measured after 24 hrs by real time RT-PCR analysis; type: functional, organism-based; conditions: dose 4.0 µg/ml
Candida albicans [35] = test: Antifungal activity against Candida albicans SC5314 assessed as decrease in HWP1 mRNA level at 4 ug/ml measured after 24 hrs by real time RT-PCR analysis; type: functional, organism-based; conditions: dose 4.0 µg/ml
Candida albicans [36] = test: Antifungal activity against Candida albicans SC5314 assessed as decrease in ALS3 mRNA level at 4 ug/ml measured after 24 hrs by real time RT-PCR analysis; type: functional, organism-based; conditions: dose 4.0 µg/ml
Candida albicans [37] = test: Antifungal activity against Candida albicans SC5314 assessed as decrease in EFG1 mRNA level at 4 ug/ml measured after 24 hrs by real time RT-PCR analysis; type: functional, organism-based; conditions: dose 4.0 µg/ml
Candida albicans [38] = test: Antifungal activity against Candida albicans SC5314 assessed as decrease in CPH1 mRNA level at 4 ug/ml measured after 24 hrs by real time RT-PCR analysis; type: functional, organism-based; conditions: dose 4.0 µg/ml
Candida albicans [39] = test: Antifungal activity against Candida albicans SC5314 assessed as decrease in ACE2 mRNA level at 4 ug/ml measured after 24 hrs by real time RT-PCR analysis; type: functional, organism-based; conditions: dose 4.0 µg/ml
Candida albicans [40] = test: Antifungal activity against Candida albicans SC5314 assessed as decrease in TEC1 mRNA level at 4 ug/ml measured after 24 hrs by real time RT-PCR analysis; type: functional, organism-based; conditions: dose 4.0 µg/ml
Candida albicans [41] = test: Antifungal activity against Candida albicans SC5314 assessed as decrease in RLM1 mRNA level at 4 ug/ml measured after 24 hrs by real time RT-PCR analysis; type: functional, organism-based; conditions: dose 4.0 µg/ml
Candida albicans [42] = test: Antifungal activity against Candida albicans SC5314 assessed as decrease in ZAP1 mRNA level at 4 ug/ml measured after 24 hrs by real time RT-PCR analysis; type: functional, organism-based; conditions: dose 4.0 µg/ml
Candida albicans [43] = test: Antifungal activity against Candida albicans SC5314 infected in immunosuppressed ICR mouse assessed as reduction in fungal burden in kidney at 5 mg/kg, ip treated for 5 days consecutively (reference value: 6.71 log10CFU/ml); type: functional; conditions: time 5 day
Candida albicans [44] = test: Antifungal activity against Candida albicans SC5314 infected in immunosuppressed ICR mouse assessed as reduction in fungal burden in kidney at 10 mg/kg, ip treated for 5 days consecutively (reference value: 6.71 log10CFU/ml); type: functional; conditions: time 5 day
Candida albicans [45] = test: Antifungal activity against Candida albicans SC5314 infected in immunosuppressed ICR mouse assessed as reduction in fungal burden in kidney at 20 mg/kg, ip treated for 5 days consecutively (reference value: 6.71 log10CFU/ml); type: functional; conditions: time 5 day
Candida albicans [46] = test: Antifungal activity against Candida albicans SC5314 infected in immunosuppressed ICR mouse administered intraperitoneally treated for 5 days consecutively; type: functional, organism-based; conditions: dose 5-20 mg/kg, route ip, time 5.0 day

## CCNC(=O)c1noc(-c2cc(-c3ccc(C)cc3)c(O)cc2O)c1-c1ccc(CN2CCOCC2)cc1
Candida albicans [1]
  MIC80: 32 µg/mL (≈ 62.3 µM)
Nakaseomyces glabratus [2]
  MIC80: > 64 µg/mL
Cryptococcus neoformans [3]
  MIC80: 32 µg/mL (≈ 62.3 µM)
Pichia kudriavzevii [4]
  MIC80: > 64 µg/mL
Candida albicans [5]
  fractional inhibitory concentration index (FICI): 0.13
Cryptococcus neoformans [6]
  fractional inhibitory concentration index (FICI): 0.31
Nakaseomyces glabratus [7]
  fractional inhibitory concentration index (FICI): 0.5
Pichia kudriavzevii [8]
  fractional inhibitory concentration index (FICI): 2
[9]
  IC50 at 72 h: 680 nM
[10]
  IC50 at 72 h: 680 nM
[11]
  inhibition (INH): Not_active
[12]
  IC50: 390 nM
Heat shock protein HSP90
  IC50: 1540 nM
Candida albicans [13]; dose 4.0 µg/ml
  inhibition: Active; Exhibited Little Inhibitory Effect
Candida albicans [14]
  Activity: inactive
Candida albicans [15]
  Activity: Active

## CCN(C(=O)c1cc(-c2ccc(C)cc2)c(O)cc1O)c1ccc(CN2CCN(CC(O)(Cn3cncn3)c3ccc(F)cc3F)CC2)cc1 (centres undefined)
Candida albicans [1]
  MIC80: 0.063 µg/mL (≈ 0.0923 µM)
Nakaseomyces glabratus [2]
  MIC80: 8 µg/mL (≈ 11.7 µM)
Cryptococcus neoformans [3]
  MIC80: 4 µg/mL (≈ 5.86 µM)
Pichia kudriavzevii [4]
  MIC80: 16 µg/mL (≈ 23.4 µM)
[9]
  IC50 at 72 h: 2100 nM
[10]
  IC50 at 72 h: 2100 nM
[16]
  inhibition (INH): Active
[17]
  inhibition (INH): Active
[18]
  inhibition (INH): Active
[19]
  inhibition (INH): Active
[20]
  inhibition (INH): Active
[12]
  IC50: 740 nM
Candida albicans [21]
  Ratio: 16
Heat shock protein HSP90
  IC50: 6630 nM
Candida albicans [22]
  MIC80: 0.004 µg/mL (≈ 0.00586 µM)
Candida albicans [23]
  inhibition: Active; Activity Was Superior Than Flc
Candida albicans [24]
  Activity: 7.39 log10CFU/ml
Candida albicans [25]
  inhibition: Dose-dependent-effect
Candida albicans [26]
  inhibition: Active; Activity Was Superior Than Flc
Candida albicans [27]
  inhibition at 32 µg/mL: ~100%
Candida albicans [28]
  inhibition: Active; Inhibitory Effect Was Superior Than Flc
Candida albicans [29]
  inhibition at 8 µg/mL: 100%
Candida albicans [30]
  inhibition at 0.5 µg/mL: > 50%
Candida albicans [13]
  inhibition at 4 µg/mL: > 80%
Candida albicans [31]
  inhibition at 32 µg/mL: 100%
Candida albicans [32]
  inhibition: Dose-dependent-effect; Result Indicated That Compound Was More Potent Than Flc
Candida albicans [33]
  Activity: Active
Candida albicans [34]
  Activity: Active
Candida albicans [35]
  Activity: Active
Candida albicans [36]
  Activity: Active
Candida albicans [37]
  Activity: Active
Candida albicans [38]
  Activity: Active
Candida albicans [39]
  Activity: Active
Candida albicans [40]
  Activity: Active
Candida albicans [41]
  Activity: Active
Candida albicans [42]
  Activity: Active
Candida albicans [43]
  Activity: 6.14 log10CFU/ml
Candida albicans [44]
  Activity: 5.83 log10CFU/ml
Candida albicans [45]
  Activity: 5.47 log10CFU/ml
Candida albicans [46]
  Activity: Dose-dependent-effect

## CCNC(=O)c1noc(-c2cc(-c3ccc(C)cc3)c(O)cc2O)c1-c1ccc(CN2CCN(C(=O)CCCCCOc3ccc(CN(C)CC(O)(Cn4cncn4)c4ccc(F)cc4F)cc3)CC2)cc1 (centres undefined)
Candida albicans [1]
  MIC80: 4 µg/mL (≈ 4.07 µM)
Nakaseomyces glabratus [2]
  MIC80: 16 µg/mL (≈ 16.3 µM)
Cryptococcus neoformans [3]
  MIC80: 4 µg/mL (≈ 4.07 µM)
Pichia kudriavzevii [4]
  MIC80: > 64 µg/mL

## CCN(C(=O)c1cc(-c2ccc(C)cc2)c(OCc2ccccc2)cc1OCc1ccccc1)c1ccc(CN2CCN(CC(O)(Cn3cncn3)c3ccc(F)cc3F)CC2)cc1 (centres undefined)
Candida albicans [1]
  MIC80: > 64 µg/mL
Nakaseomyces glabratus [2]
  MIC80: 16 µg/mL (≈ 18.5 µM)
Cryptococcus neoformans [3]
  MIC80: > 64 µg/mL
Pichia kudriavzevii [4]
  MIC80: > 64 µg/mL
